One assay deals with T1, FLT3 (Homo sapiens, UniProt P36888).
T1 sequence (P36888 27-993): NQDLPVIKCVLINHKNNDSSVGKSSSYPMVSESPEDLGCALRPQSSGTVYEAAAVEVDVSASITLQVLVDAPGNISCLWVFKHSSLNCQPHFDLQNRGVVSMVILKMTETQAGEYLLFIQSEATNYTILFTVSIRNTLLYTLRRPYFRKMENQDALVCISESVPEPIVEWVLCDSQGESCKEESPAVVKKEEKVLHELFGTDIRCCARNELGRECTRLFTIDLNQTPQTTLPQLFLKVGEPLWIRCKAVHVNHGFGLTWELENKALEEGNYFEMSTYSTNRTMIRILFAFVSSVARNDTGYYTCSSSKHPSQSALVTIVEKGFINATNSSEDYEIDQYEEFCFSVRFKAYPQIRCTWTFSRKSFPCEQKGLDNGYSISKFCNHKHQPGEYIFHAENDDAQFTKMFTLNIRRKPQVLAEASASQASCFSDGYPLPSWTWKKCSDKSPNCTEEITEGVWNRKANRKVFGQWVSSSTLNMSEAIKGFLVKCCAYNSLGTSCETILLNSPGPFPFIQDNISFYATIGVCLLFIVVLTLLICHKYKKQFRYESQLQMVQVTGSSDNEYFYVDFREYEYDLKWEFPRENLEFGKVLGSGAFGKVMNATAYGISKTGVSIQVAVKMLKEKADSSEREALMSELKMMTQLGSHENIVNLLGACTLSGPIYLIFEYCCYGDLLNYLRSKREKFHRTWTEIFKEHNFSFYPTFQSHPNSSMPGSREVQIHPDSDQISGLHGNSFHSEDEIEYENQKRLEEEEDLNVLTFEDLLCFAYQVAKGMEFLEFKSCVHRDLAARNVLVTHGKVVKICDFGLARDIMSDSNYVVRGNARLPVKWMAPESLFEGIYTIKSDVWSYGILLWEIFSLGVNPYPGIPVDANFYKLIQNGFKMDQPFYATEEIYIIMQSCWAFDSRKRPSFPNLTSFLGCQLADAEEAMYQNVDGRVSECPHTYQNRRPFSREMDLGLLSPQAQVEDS
As to the kind of experiment: ADP Glo Kinase Assay, FLT3, 50 nM inhibitor. Format: biochemical. The conditions noted are these: 50 nM inhibitor conc.; means of triplicates; read-out: Percent Inhibition (%) FLT3. The protocol: (§1) With the amide kinase inhibitor library established, kinase inhibition and AML cell line (Molm-14, which harbors FLT3-ITD) growth inhibition were analyzed (Table 1). More specifically, Haspin and FLT3 inhibition were evaluated in-house via ADP Glo Kinase Assay (Promega, Madison, WI). […] Values reported are means of triplicates.
(§2) Briefly, the ADP-Glo Kinase Assay Kit was used to determine inhibition of haspin. Kinase Buffer (SignalChem Cat #K01-09; 25 mM MOPS, pH 7.2, 12.5 mM β-glycerol-phosphate, 25 mM MgCl2, 2 mM EDTA) was supplemented with dithiothreitol (DTT) (0.2 mM) and bovine serum albumin (BSA) (40 μg/mL) immediately prior to use. Reaction volumes of 5 μL containing 9 ng/μL kinase, 10 μM ATP, 50 nM inhibitor, and the appropriate peptide substrate (20 μM) were incubated for 3 hours, and then quenched with an equal volume (5 μL) of GLO reagent. After 40 minutes, 10 μL DET reagent was added and incubated for 1 hour before visualization on a Cytation™ 5 Cell Imaging Multi-Mode Reader (BioTek).
On the technique in general: In ADP-Glo the light output rises with the ADP produced.

For a further assay, the target named is T2, haspin (Homo sapiens, UniProt Q8TF76).
T2 sequence (Q8TF76 1-798): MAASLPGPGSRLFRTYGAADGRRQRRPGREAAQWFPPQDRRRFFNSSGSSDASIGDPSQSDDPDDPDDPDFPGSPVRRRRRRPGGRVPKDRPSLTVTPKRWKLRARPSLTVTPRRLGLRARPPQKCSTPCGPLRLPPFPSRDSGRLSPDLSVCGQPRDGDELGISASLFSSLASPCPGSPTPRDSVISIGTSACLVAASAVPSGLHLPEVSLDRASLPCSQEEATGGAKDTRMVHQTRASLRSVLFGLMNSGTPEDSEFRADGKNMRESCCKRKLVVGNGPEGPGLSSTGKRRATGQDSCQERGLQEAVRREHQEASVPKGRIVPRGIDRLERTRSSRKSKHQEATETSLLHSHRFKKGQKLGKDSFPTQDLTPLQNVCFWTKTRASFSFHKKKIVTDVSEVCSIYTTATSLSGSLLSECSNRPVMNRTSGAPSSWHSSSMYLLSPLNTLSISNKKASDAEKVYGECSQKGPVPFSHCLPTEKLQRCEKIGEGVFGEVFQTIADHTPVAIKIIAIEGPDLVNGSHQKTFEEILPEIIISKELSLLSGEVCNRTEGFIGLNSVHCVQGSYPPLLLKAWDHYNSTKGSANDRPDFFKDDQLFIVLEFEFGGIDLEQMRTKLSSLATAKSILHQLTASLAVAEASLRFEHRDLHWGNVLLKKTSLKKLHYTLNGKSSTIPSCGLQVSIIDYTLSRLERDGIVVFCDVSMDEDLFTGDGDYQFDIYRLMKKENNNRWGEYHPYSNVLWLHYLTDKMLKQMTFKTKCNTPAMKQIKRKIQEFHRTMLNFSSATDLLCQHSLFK
The experiment in a line: ADP Glo Kinase Assay, haspin, 50 nM inhibitor. Format: biochemical. The conditions noted are these: 50 nM inhibitor conc.; means of triplicates; read-out: Percent Inhibition (%) Haspin. The protocol: as §1, §2

In a further assay the test system is Molm-14 cells (FLT3-ITD). As to the kind of experiment: AML cell line growth inhibition (CellTiter-Blue), 50 nM. In kind it is cell-based. The conditions noted are these: Homo sapiens, 50 nM inhibitor conc., means of triplicates, read-out: Percent Inhibition (%) Molm-14 growth. The protocol: as §1
More specifically, cells were cultured to confluence in RPMI medium supplemented with 10% fetal bovine serum and 1× Penicillin-Streptomycin (Gibco™). Cells were plated at 5,000 cells/well in 96 well plates. After 24-hour incubation at 37° C. in a 5% CO2 incubator, compounds diluted in the same media were added to the indicated final concentration and allowed to incubate at 37° C. in a 5% CO2 incubator for 72 hours. Viability was determined using CellTiter-Blue® Cell Viability Assay (Promega, Madison, WI) with absorbance readings at 570 nm performed on a Cytation™ 5 Cell Imaging Multi-Mode Reader (BioTek) 3 hours after addition. Appropriate vehicle and cell-free controls were included. GI50 readings were confirmed by two scientists on two separate days.

For the next assay, the target named is CDK2 (Homo sapiens, UniProt P24941). The experiment in a line: CDK2 inhibition (IC50). In kind it is biochemical.
For a further assay, the target named is CDK12/CyclinK (Homo sapiens, UniProt Q9NYV4). As to the kind of experiment: CDK12/CyclinK inhibition (IC50). Format: biochemical.

Our source for the inhibition and IC50 values is US20250320203A1, “4-(3H-PYRAZOLO[4,3-F]QUINOLIN-7-YL)-N-(2-(DIMETHYLAMINO)ETHYL)BENZAMIDE- OR HYDROXAMIC ACID COMPOUNDS, COMPOSITIONS, AND METHODS OF USE” (Purdue Research Foundation, priority 2022, published 2025).

CDK12/CyclinK, sequence (Q9NYV4 whole entry): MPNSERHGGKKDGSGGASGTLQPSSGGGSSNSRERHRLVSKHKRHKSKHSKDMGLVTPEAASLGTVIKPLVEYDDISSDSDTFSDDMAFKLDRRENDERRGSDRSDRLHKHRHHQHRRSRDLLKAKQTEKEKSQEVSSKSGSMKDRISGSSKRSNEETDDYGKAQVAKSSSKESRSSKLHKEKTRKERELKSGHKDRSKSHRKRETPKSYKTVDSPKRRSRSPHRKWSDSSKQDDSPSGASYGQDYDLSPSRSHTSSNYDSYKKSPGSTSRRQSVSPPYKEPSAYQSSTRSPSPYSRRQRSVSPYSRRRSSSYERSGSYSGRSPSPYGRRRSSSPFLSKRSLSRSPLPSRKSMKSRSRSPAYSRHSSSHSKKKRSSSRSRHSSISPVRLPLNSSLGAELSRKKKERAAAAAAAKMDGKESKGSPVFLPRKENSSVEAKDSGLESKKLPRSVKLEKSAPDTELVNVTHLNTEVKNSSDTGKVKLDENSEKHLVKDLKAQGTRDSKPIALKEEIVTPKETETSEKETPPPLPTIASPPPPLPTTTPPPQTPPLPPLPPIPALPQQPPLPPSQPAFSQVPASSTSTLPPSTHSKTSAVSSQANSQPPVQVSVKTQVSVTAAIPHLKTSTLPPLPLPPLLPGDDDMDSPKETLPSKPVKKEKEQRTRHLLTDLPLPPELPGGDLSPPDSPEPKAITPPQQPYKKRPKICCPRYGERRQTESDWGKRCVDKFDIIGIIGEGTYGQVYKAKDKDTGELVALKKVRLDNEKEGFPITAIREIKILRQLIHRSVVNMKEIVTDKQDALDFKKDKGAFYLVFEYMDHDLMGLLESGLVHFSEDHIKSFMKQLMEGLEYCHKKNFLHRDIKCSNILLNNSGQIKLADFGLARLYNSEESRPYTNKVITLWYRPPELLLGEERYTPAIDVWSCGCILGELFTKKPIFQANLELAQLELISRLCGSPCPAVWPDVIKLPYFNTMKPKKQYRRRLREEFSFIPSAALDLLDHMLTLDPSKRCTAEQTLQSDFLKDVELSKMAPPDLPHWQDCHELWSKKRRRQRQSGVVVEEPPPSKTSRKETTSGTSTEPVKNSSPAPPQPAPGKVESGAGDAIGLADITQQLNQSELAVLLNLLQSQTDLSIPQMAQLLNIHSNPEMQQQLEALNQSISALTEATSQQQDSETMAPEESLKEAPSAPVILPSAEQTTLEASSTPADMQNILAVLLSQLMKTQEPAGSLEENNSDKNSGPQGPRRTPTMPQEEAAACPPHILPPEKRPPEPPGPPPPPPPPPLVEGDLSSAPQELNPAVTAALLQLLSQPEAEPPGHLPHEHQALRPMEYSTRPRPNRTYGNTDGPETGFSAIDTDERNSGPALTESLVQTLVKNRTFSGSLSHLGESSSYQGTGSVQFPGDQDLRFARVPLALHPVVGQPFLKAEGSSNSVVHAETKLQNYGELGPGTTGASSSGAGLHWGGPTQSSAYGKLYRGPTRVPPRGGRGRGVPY
CDK12/CyclinK, sequence (O75909 whole entry partner): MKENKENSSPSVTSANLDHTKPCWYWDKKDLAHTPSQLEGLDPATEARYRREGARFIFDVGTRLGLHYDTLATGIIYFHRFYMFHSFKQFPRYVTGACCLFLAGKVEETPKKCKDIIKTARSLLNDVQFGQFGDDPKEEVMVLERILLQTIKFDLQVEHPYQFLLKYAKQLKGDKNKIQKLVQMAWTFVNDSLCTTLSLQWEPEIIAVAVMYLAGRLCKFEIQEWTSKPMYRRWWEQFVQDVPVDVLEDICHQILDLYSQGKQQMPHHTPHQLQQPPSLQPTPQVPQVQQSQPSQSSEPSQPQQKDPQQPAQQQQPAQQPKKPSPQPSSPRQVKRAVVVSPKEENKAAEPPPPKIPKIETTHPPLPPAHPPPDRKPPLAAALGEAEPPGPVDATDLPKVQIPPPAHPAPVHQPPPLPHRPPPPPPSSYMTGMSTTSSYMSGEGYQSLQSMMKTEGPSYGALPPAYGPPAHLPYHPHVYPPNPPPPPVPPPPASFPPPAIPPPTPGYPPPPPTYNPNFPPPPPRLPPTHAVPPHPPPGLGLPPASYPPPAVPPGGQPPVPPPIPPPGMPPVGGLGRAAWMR

What is called inhibition is the drop in the measured response relative to a control, in per cent. As to `O=C(NCc1ncn[nH]1)c1ccc(-c2nc3ccc4[nH]ncc4c3c3c2CCCC3)cc1` [Compound 8, N-((4H-1,2,4-triazol-3-yl)methyl)-4-(8,9,10,11-tetrahydro-3H-pyrazolo[4,3-a]phenanthridin-7-yl)benzamide], the inhibition at 0.05 µM worked out at 49% on FLT3, 57% on haspin and 48% in the assay on Molm-14 cells (FLT3-ITD).
With `O=C(NCc1ncc[nH]1)c1ccc(-c2nc3ccc4[nH]ncc4c3c3c2CCCC3)cc1F` [Compound 11, N-((1H-imidazol-2-yl)methyl)-2-fluoro-4-(8,9,10,11-tetrahydro-3H-pyrazolo[4,3-a]phenanthridin-7-yl)benzamide], the figures for the inhibition at 0.05 µM at FLT3, on haspin and in the assay with Molm-14 cells (FLT3-ITD) were 85%, 76% and 80%, respectively.
On to `O=C(NCc1cc[nH]c1)c1ccc(-c2nc3ccc4[nH]ncc4c3c3c2CCCC3)cc1` [Compound 12, N-((1H-pyrrol-3-yl)methyl)-4-(8,9,10,11-tetrahydro-3H-pyrazolo[4,3-a]phenanthridin-7-yl)benzamide], for which the inhibition at 0.05 µM at FLT3 was found to be 46%; at haspin it was 41%; with Molm-14 cells (FLT3-ITD), 39%.
The matching figures for `O=C(NCc1ncc[nH]1)c1ccc(-c2nc3ccc4[nH]ncc4c3c3c2CCCC3)cc1` [Compound 6, N-((1HI-imidazol-2-yl)methyl)-4-(8,9,10,11-tetrahydro-3H-pyrazolo[4,3-a]phenanthridin-7-yl)benzamide]: 76%, 77% and 84%.
One may read the IC50 as the concentration that inhibits the measured activity by half. A higher IC50 goes with weaker potency in that assay. On to `O=C(NO)c1ccc(-c2nc3ccc4[nH]ncc4c3c3c2CCCC3)cc1` [Compound HSD1993, N-hydroxy-4-(8,9,10,11-tetrahydro-3H-pyrazolo[4,3-a]phenanthridin-7-yl)benzamide], for which the results for the IC50 against CDK2 and on CDK12/CyclinK were 0.004 µM and 0.009 µM, respectively.
`O=C(NCCn1ccnc1)c1ccc(-c2nc3ccc4[nH]ncc4c3c3c2CCCC3)cc1` [Compound 5, N-(2-(1H-imidazol-1-yl)ethyl)-4-(8,9,10,11-tetrahydro-3H-pyrazolo[4,3-a]phenanthridin-7-yl)benzamide]: the inhibition at 0.05 µM was determined as 31% on FLT3, 33% on haspin and 42% in the assay on Molm-14 cells (FLT3-ITD).
As for `NC(=O)c1ccc(-c2nc3ccc4[nH]ncc4c3c3c2CCCC3)cc1` [HSD1217, reference compound], the IC50 against CDK2 was 0.185 µM.
As for `Cn1ccnc1CNC(=O)c1ccc(-c2nc3ccc4[nH]ncc4c3c3c2CCCC3)cc1` [Compound 7, N-((1-methyl-1H-imidazol-2-yl)methyl)-4-(8,9,10,11-tetrahydro-3H-pyrazolo[4,3-a]phenanthridin-7-yl)benzamide], the inhibition at 0.05 µM at FLT3 worked out at 14%; at haspin it was 26%; with Molm-14 cells (FLT3-ITD), 21%.
The matching figures for `FC(F)(F)c1n[nH]cc1-c1nc2ccc3[nH]ncc3c2c2c1CCCC2` [HSD1169, reference compound]: 81%, 39% and 90%.
The compound `CN(C)C/C=C/C(=O)Nc1ccc(C(=O)N2CCC[C@@H](Nc3ncc(Cl)c(-c4c[nH]c5ccccc45)n3)C2)cc1` [THZ531, reference compound] had an IC50 on CDK12/CyclinK of 0.06 µM.
On to `Cc1c[nH]c(CNC(=O)c2ccc(-c3nc4ccc5[nH]ncc5c4c4c3CCCC4)cc2)n1` [Compound 14, N-((4-methyl-1H-imidazol-2-yl)methyl)-4-(8,9,10,11-tetrahydro-3H-pyrazolo[4,3-a]phenanthridin-7-yl)benzamide], for which the inhibition at 0.05 µM on FLT3 came out at 94%; at haspin, 97%.
Consider `O=C(NCc1nnn[nH]1)c1ccc(-c2nc3ccc4[nH]ncc4c3c3c2CCCC3)cc1` [Compound 10, N-((1H-tetrazol-5-yl)methyl)-4-(8,9,10,11-tetrahydro-3H-pyrazolo[4,3-a]phenanthridin-7-yl)benzamide], for which the inhibition at 0.05 µM on FLT3 was 51%; on haspin, 57%; with Molm-14 cells (FLT3-ITD) it was 50%.
The matching figures for `O=C(NCc1c[nH]cn1)c1ccc(-c2nc3ccc4[nH]ncc4c3c3c2CCCC3)cc1` [Compound 4, N-((1H-imidazol-4-yl)methyl)-4-(8,9,10,11-tetrahydro-3H-pyrazolo[4,3-a]phenanthridin-7-yl)benzamide]: 49%, 54% and 67%.
The matching figures for `O=C(NCCc1ncc[nH]1)c1ccc(-c2nc3ccc4[nH]ncc4c3c3c2CCCC3)cc1` [Compound 15, N-(2-(1H-imidazol-2-yl)ethyl)-4-(8,9,10,11-tetrahydro-3H-pyrazolo[4,3-a]phenanthridin-7-yl)benzamide]: 71%, 78% and 73%.
For the compound `O=C(NCc1nccs1)c1ccc(-c2nc3ccc4[nH]ncc4c3c3c2CCCC3)cc1` [Compound 13, 4-(8,9,10,11-tetrahydro-3HI-pyrazolo[4,3-a]phenanthridin-7-yl)-N-(thiazol-2-ylmethyl)benzamide], the results for the inhibition at 0.05 µM at FLT3, on haspin and in the assay with Molm-14 cells (FLT3-ITD) were 53%, 68% and 55%, respectively.
Consider `O=C(NCc1ncc[nH]1)c1ccc(-c2nc3ccc4[nH]ncc4c3c3c2CCCC3)c(F)c1` [Compound 9, N-((1H-imidazol-2-yl)methyl)-3-fluoro-4-(8,9,10,11-tetrahydro-3H-pyrazolo[4,3-a]phenanthridin-7-yl)benzamide], for which the inhibition at 0.05 µM is 88% on FLT3, 53% on haspin and 87% in the assay on Molm-14 cells (FLT3-ITD).
